Results reported in patent US20120053053A1, “PYRIMIDINE DERIVATIVES AND THEIR USE AS HERBICIDES” (SYNGENTA CROP PROTECTION, LLC, priority 2009, published 2012).

Assays:
Type in all cases: in vivo
[1] = tested on: Amaranthus retoflexus (AMARE); experiment: Post-emergence biological efficacy (percentage damage); details: Amaranthus retroflexus, 312 h, evaluated after 13 days, 100=total damage, 0=no damage; for pest or weed control at 1000 g/ha: dose 1,000 g/ha
Method: (§1) Seeds of Alopecurus myosuroides (ALOMY), Setaria faberi (SETFA), Echinochloa crus-galli (ECHCG), Solanum nigrum (SOLNI), Amaranthus retoflexus (AMARE) and Ipomea hederaceae (IPOHE) were sown in standard soil in pots. After cultivation for 8 days under controlled conditions in a glasshouse (at 24/16° C., day/night; 14 hours light; 65% humidity), the plants were sprayed with an aqueous spray solution derived from the formulation of the technical active ingredient in acetone/water (50:50) solution containing 0.5% Tween 20 (polyoxyethylene sorbitan monolaurate, CAS RN 9005-64-5) to give a final dose of 250 or 1000 g/ha of test compound. The test plants were then grown on under controlled conditions in a glasshouse (at 24/16° C., day/night; 14 hours light; 65% humidity) and watered twice daily. After 13 days the test was evaluated (100=total damage to plant; 0=no damage to plant).

[2] = tested on: Alopecurus myosuroides (ALOMY); experiment: as above; details: Alopecurus myosuroides, 312 h, evaluated after 13 days, 100=total damage, 0=no damage; for pest or weed control at 1000 g/ha: dose 1,000 g/ha
Method: as §1

Solanum nigrum (SOLNI) [3] = experiment: as above; details: Solanum nigrum, 312 h, evaluated after 13 days, 100=total damage, 0=no damage; for pest or weed control at 1000 g/ha: dose 1,000 g/ha
Method: as §1

[4] = tested on: Ipomea hederaceae (IPOHE); experiment: as above; details: Ipomoea hederacea, 312 h, evaluated after 13 days, 100=total damage, 0=no damage; for pest or weed control at 1000 g/ha: dose 1,000 g/ha
Method: as §1

[5] = tested on: Echinochloa crus-galli (ECHCG); experiment: as above; details: Echinochloa crus-galli, 312 h, evaluated after 13 days, 100=total damage, 0=no damage; for pest or weed control at 1000 g/ha: dose 1,000 g/ha
Method: as §1

Setaria faberi (SETFA) [6] = experiment: as above; details: Setaria faberi, 312 h, evaluated after 13 days, 100=total damage, 0=no damage; for pest or weed control at 1000 g/ha: dose 1,000 g/ha
Method: as §1

[7] = tested on: Amaranthus retoflexus (AMARE); experiment: Pre-emergence biological efficacy (percentage damage); details: Amaranthus retroflexus, 312 h, evaluated after 13 days, 100=total damage, 0=no damage; for pest or weed control at 1000 g/ha: dose 1,000 g/ha
Method: (§2) Seeds of Alopecurus myosuroides (ALOMY), Setaria faberi (SETFA), Echinochloa crus-galli (ECHCG), Solanum nigrum (SOLNI), Amaranthus retoflexus (AMARE) and Ipomea hederaceae (IPOHE) were sown in standard soil in pots. After cultivation for one day under controlled conditions in a glasshouse (at 24/16° C., day/night; 14 hours light; 65% humidity), the plants were sprayed with an aqueous spray solution derived from the formulation of the technical active ingredient in acetone/water (50:50) solution containing 0.5% Tween 20 (polyoxyethylene sorbitan monolaurate, CAS RN 9005-64-5) to give a final dose of 250 or 1000 g/ha of test compound. The test plants were then grown under controlled conditions in the glasshouse (at 24/16° C., day/night; 14 hours light; 65% humidity) and watered twice daily. After 13 days the test was evaluated (100=total damage to plant; 0=no damage to plant).

[8] = tested on: Alopecurus myosuroides (ALOMY); experiment: as above; details: Alopecurus myosuroides, 312 h, evaluated after 13 days, 100=total damage, 0=no damage; for pest or weed control at 1000 g/ha: dose 1,000 g/ha
Method: as §2

Solanum nigrum (SOLNI) [9] = experiment: as above; details: Solanum nigrum, 312 h, evaluated after 13 days, 100=total damage, 0=no damage; for pest or weed control at 1000 g/ha: dose 1,000 g/ha
Method: as §2

[10] = tested on: Ipomea hederaceae (IPOHE); experiment: as above; details: Ipomoea hederacea, 312 h, evaluated after 13 days, 100=total damage, 0=no damage; for pest or weed control at 1000 g/ha: dose 1,000 g/ha
Method: as §2

[11] = tested on: Echinochloa crus-galli (ECHCG); experiment: as above; details: Echinochloa crus-galli, 312 h, evaluated after 13 days, 100=total damage, 0=no damage; for pest or weed control at 1000 g/ha: dose 1,000 g/ha
Method: as §2

Setaria faberi (SETFA) [12] = experiment: as above; details: Setaria faberi, 312 h, evaluated after 13 days, 100=total damage, 0=no damage; for pest or weed control at 1000 g/ha: dose 1,000 g/ha
Method: as §2

Compound	pest or weed control at 1000 g/ha [1] [%]	pest or weed control at 1000 g/ha [2] [%]	pest or weed control at 1000 g/ha (Solanum nigrum (SOLNI) [3]) [%]	pest or weed control at 1000 g/ha [4] [%]	pest or weed control at 1000 g/ha [5] [%]	pest or weed control at 1000 g/ha (Setaria faberi (SETFA) [6]) [%]	pest or weed control at 1000 g/ha [7] [%]	pest or weed control at 1000 g/ha [8] [%]	pest or weed control at 1000 g/ha (Solanum nigrum (SOLNI) [9]) [%]	pest or weed control at 1000 g/ha [10] [%]	pest or weed control at 1000 g/ha [11] [%]	pest or weed control at 1000 g/ha (Setaria faberi (SETFA) [12]) [%]	also measured
COC(=O)c1nc(C2CC2)nc(N)c1C#CC(C)(C)C [Compound 2-77, 4-Amino-2-cyclopropyl-5-(3,3-dimethylbut-1-ynyl)-6-methoxycarbonyl-pyrimidine]													pest or weed control at 250 g/ha ([1]; dose 250 g/ha): 30%; pest or weed control at 250 g/ha ([2]; dose 250 g/ha): 0%; pest or weed control at 250 g/ha (Solanum nigrum (SOLNI) [3]; dose 250 g/ha): 40%; pest or weed control at 250 g/ha ([4]; dose 250 g/ha): 70%; pest or weed control at 250 g/ha ([5]; dose 250 g/ha): 0%; pest or weed control at 250 g/ha (Setaria faberi (SETFA) [6]; dose 250 g/ha): 0%; pest or weed control at 250 g/ha ([7]; dose 250 g/ha): 0%; pest or weed control at 250 g/ha ([8]; dose 250 g/ha): 0%; pest or weed control at 250 g/ha (Solanum nigrum (SOLNI) [9]; dose 250 g/ha): 0%; pest or weed control at 250 g/ha ([10]; dose 250 g/ha): 0%; pest or weed control at 250 g/ha ([11]; dose 250 g/ha): 0%; pest or weed control at 250 g/ha (Setaria faberi (SETFA) [12]; dose 250 g/ha): 0%
COC(=O)c1nc(C2CC2)nc(N)c1C#C[Si](C)(C)C [Compound 2-78, 4-amino-2-cyclopropyl-6-methoxycarbonyl-5-(trimethylsilylethynyl)-pyrimidine]	100	30	100	100	60	60	90	20	90	100	30	10	
COC(=O)c1nc(C2CC2)nc(N(C)C)c1C [Compound 2-221, 2-Cyclopropyl-4-dimethylamino-6-methoxycarbonyl-5-methylpyrimidine]	100	20	80	80	70	60	60	30	60	70	0	0	
C=Cc1c(C(=O)OC)nc(C2CC2)nc1N(C)C [Compound 2-225, 2-Cyclopropyl-4-dimethylamino-5-ethenyl-6-methoxycarbonyl-pyrimidine]	40	0	50	30	0	0	40	0	0	20	0	0	
COC(=O)COc1nc(C2CC2)nc(N)c1C [Compound 2-362, 4-amino-2-cyclopropyl-6-methoxycarbonylmethoxy-5-methylpyrimidine]	80	40	80	80	60	70	40	40	10	30	10	40	
C=Cc1c(N)nc(SC)nc1OCC(=O)OC [Compound 2-366, 4-amino-5-ethenyl-6-methoxycarbonylmethoxy-2-methylthio-pyrimidine]	0	0	20	0	0	0	0	0	0	0	0	0	
Cc1c(Cl)nc(C2CC2)nc1OCC(=O)O [Compound 2-375, (4-chloro-2-cyclopropyl-5-methyl-pyrimidin-6-yloxy)-acetic acid]	10	0	10	20	0	0	0	0	0	20	0	0	
COC(=O)COc1nc(C2CC2)nc(Cl)c1C [Compound 2-376, 4-chloro-2-cyclopropyl-6-methoxycarbonylmethoxy-5-methylpyrimidine]	20	0	30	50	0	20	30	0	0	0	0	0	
Cc1c(OCC(=O)OC(C)(C)C)nc(C2CC2)nc1OCC(=O)OC(C)(C)C [Compound 2-389, 4,6-bis(t-butoxy-carbonyl-methoxy)-2-cyclo-propyl-5-methyl-pyrimidine]	0	0	30	20	0	0	20	0	0	0	0	0	
C=Cc1c(OC)nc(C2CC2)nc1C(=O)OC [Compound 2-398, 2-Cyclopropyl-5-ethenyl-4-methoxy-6-methoxy-carbonyl-pyrimidine]	90	0	80	90	0	0	90	0	90	100	0	0	
C=Cc1c(N=[N+]=[N-])nc(C2CC2)nc1C(=O)OC [Compound 2-399, 4-azido-2-cyclopropyl-5-ethenyl-6-methoxycarbonyl-pyrimidine]	20	0	20	20	0	0	0	0	0	0	0	0	
